According to paper PMC12788799, “Affinity-guided labeling reveals P2X7 nanoscale membrane redistribution during BV2 microglial activation” (eLife, 2026):
Numbering of substitutions follows the chain as printed.

What was measured:
Type in all cases: cell-based
[1] = target: T1, mouse P2X7 (Mus musculus, UniProt Q9Z1M0); test: Covalent biotinylation of endogenous receptor with […] X7-uP, pull-down western blot and confocal imaging, blocked by AZ10606120 or A740003
T1 construct: gene P2rx7; endogenous P2X7 in BV2 cells
T1 sequence (Q9Z1M0 1-595): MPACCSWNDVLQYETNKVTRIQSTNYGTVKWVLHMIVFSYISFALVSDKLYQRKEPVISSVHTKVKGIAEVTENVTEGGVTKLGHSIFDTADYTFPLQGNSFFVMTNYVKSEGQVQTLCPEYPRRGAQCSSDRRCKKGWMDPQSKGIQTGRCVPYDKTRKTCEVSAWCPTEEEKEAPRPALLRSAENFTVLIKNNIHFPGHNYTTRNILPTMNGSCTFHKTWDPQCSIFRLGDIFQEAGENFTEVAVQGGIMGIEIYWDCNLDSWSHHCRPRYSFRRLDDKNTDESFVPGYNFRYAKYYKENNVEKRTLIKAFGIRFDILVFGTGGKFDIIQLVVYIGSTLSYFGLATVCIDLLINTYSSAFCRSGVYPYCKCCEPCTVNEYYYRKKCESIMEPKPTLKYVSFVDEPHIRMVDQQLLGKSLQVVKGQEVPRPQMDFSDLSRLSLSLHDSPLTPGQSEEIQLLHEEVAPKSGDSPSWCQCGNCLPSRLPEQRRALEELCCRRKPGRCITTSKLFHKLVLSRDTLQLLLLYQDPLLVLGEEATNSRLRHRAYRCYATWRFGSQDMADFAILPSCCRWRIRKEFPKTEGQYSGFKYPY

[2] = target: T2, rat P2X7 (rP2X7) (Rattus norvegicus, UniProt Q64663, K82A/K117A); test: Whole-cell patch-clamp, reversible inhibition of BzATP-evoked currents by […] X7-uP in HEK293T cells
T2 construct: gene P2rx7; P2X7-mScarlet background
T2 sequence (Q64663 1-595 K82A/K117A): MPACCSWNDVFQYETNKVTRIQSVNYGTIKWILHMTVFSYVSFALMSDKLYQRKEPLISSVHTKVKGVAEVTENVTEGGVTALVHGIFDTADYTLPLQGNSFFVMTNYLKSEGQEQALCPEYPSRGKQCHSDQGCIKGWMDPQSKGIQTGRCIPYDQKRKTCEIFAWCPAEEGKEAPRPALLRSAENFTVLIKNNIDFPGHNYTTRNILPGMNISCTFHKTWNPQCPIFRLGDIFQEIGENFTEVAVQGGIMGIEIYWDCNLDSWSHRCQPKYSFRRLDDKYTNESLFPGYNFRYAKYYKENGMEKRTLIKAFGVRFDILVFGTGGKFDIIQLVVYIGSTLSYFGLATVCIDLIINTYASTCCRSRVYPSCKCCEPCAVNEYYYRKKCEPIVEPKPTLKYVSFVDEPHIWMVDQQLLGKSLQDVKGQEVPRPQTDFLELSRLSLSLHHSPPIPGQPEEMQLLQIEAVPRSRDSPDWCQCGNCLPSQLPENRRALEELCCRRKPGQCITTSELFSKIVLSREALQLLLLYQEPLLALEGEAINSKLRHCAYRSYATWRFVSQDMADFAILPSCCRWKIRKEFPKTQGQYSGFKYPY

[3] = target: T3, rat P2X7 (rP2X7) (Rattus norvegicus, UniProt Q64663); test: Kinetics of covalent biotinylation in HEK293T cells (pull-down western blot); whole-cell patch-clamp inhibition of BzATP currents; design: gene P2rx7; P2X7c-myc
T3 sequence (Q64663 1-595): T2 sequence (Q64663 1-595 K82A/K117A) with A82K, A117K

[4] = target: T1, mouse P2X7; test: Competition:[…] blocks X7-uP labeling of endogenous P2X7 (pull-down western blot, confocal)
[5] = target: T3, rat P2X7 (rP2X7); test: Whole-cell patch-clamp, inhibition of BzATP-evoked currents at […] in HEK293T cells; also blocks X7-uP labeling; design: gene P2rx7

% labeled [1] [% labeled]	Kd [3] [µM]	Compound	Whole-cell patch-clamp, reversible inhibition of BzATP-evoked currents by 0.5 μM [2]	Competition: 10 μM blocks X7-uP labeling of endogenous P2X7 (pull-down western b) [4]	inhibition at 1 µM [5] [%]
80	7.3	N#CCN(C(=O)CCOCCOCCOCCOCCNC(=O)CCCC[C@@H]1SC[C@@H]2NC(=O)N[C@@H]21)S(=O)(=O)c1ccc(C(=O)NCCNc2ccc3c(NC(=O)CC45CC6CC(CC(C6)C4)C5)cccc3n2)cc1 [X7-uP, N-(2-((5-(2-(adamantan-1-yl)acetamido)quinolin-2-yl)amino)ethyl)–4-(N-(cyanomethyl)-N-(17-oxo-21-((3aR,4R,6aS)–2-oxo-hexahydro-1H-thieno[3,4-d]imidazol-4-yl)–4,7,10,13-tetraoxa-16-azahenico-sanoyl)sulfamoyl)benzamide]	the double K82A/K117A mutant did not affect the ability of X7-uP to inhibit BzATP-evoked currents		
		O=C(CC12CC3CC(CC(C3)C1)C2)Nc1cccc2nc(NCCNCCO)ccc12 [AZ10606120]		This band disappeared upon co-incubation with AZ10606120 or A740003	99.7
